From the supplement of paper PMC10307832

Key:
Assay in all cases: relative viability (nuclei count vs DMSO), 5 days (fraction); higher = more cells survive
NCI-H358 = system: NCI-H358
In short: (§1)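 Dosing by pin tool came one day after lung cancer cell lines were seeded in 1536-well plates, using either one drug or a fixed anchor-drug dose plus five library-drug doses (not always all listed) in √10 steps. After 5 days, nuclei were counted on 4× images. Relative viability is treated-well nuclei count divided by vehicle-well nuclei count, and values are medians of duplicate plates.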

NCI-H650 = system: NCI-H650
In short: as §1

UMC-11 = system: UMC-11
In short: as §1

NCI-H2126 = system: NCI-H2126
In short: as §1

EPLC-272H = system: EPLC-272H
In short: as §1

NCI-H2347 = system: NCI-H2347
In short: as §1

HCC-15 = system: HCC-15
In short: as §1

ABC-1 = system: ABC-1
In short: as §1

NCI-H1993 = system: NCI-H1993
In short: as §1

COR-L23 = system: COR-L23
In short: as §1

SW 1573 = system: SW 1573
In short: as §1

LU99A = system: LU99A
In short: as §1

HOP-62 = system: HOP-62
In short: as §1

LC-2-ad = system: LC-2-ad
In short: as §1

NCI-H1651 = system: NCI-H1651
In short: as §1

NCI-H2023 = system: NCI-H2023
In short: as §1

NCI-H1915 = system: NCI-H1915
In short: as §1

NCI-H838 = system: NCI-H838
In short: as §1

NCI-H2085 = system: NCI-H2085
In short: as §1

NCI-H1355 = system: NCI-H1355
In short: as §1

HARA = system: HARA
In short: as §1

PC-14 = system: PC-14
In short: as §1

Question: What does the source list for `CCN(CC)CCCCNc1ncc2cc(-c3cc(OC)cc(OC)c3)c(NC(=O)NC(C)(C)C)nc2n1` + COc1cc2c(Oc3ccc(NC(=O)C4(C(=O)Nc5ccc(F)cc5)CC4)cc3F)ccnc2cc1OCCCN1CCOCC1 [Foretinib] (partner 0.25 µM)?
Answer: relative viability (NCI-H358; first compound 0.01 µM): 0.71; relative viability (NCI-H358; first compound 0.03162 µM): 0.638; relative viability (NCI-H358; first compound 0.1 µM): 0.679; relative viability (NCI-H358; first compound 0.3162 µM): 0.815; relative viability (NCI-H358; first compound 1 µM): 0.625; relative viability (NCI-H650; first compound 0.01 µM): 0.968; relative viability (NCI-H650; first compound 0.03162 µM): 0.992; relative viability (NCI-H650; first compound 0.1 µM): 1.06; relative viability (NCI-H650; first compound 0.3162 µM): 1.09; relative viability (NCI-H650; first compound 1 µM): 1.13; relative viability (UMC-11; first compound 0.01 µM): 0.952; relative viability (UMC-11; first compound 0.03162 µM): 1.02; relative viability (UMC-11; first compound 0.1 µM): 1.14; relative viability (UMC-11; first compound 0.3162 µM): 1.19; relative viability (UMC-11; first compound 1 µM): 1.02; relative viability (NCI-H2126; first compound 0.01 µM): 1.37; relative viability (NCI-H2126; first compound 0.03162 µM): 1.3; relative viability (NCI-H2126; first compound 0.1 µM): 1.14; relative viability (NCI-H2126; first compound 0.3162 µM): 1.22; relative viability (NCI-H2126; first compound 1 µM): 1.11; relative viability (EPLC-272H; first compound 0.01 µM): 0.63; relative viability (EPLC-272H; first compound 0.03162 µM): 0.877; relative viability (EPLC-272H; first compound 0.1 µM): 0.693; relative viability (EPLC-272H; first compound 0.3162 µM): 0.741; relative viability (EPLC-272H; first compound 1 µM): 0.644; relative viability (NCI-H2347; first compound 0.01 µM): 0.744; relative viability (NCI-H2347; first compound 0.03162 µM): 0.85; relative viability (NCI-H2347; first compound 0.1 µM): 1.4; relative viability (NCI-H2347; first compound 0.3162 µM): 1.12; relative viability (NCI-H2347; first compound 1 µM): 0.766; relative viability (HCC-15; first compound 0.01 µM): 1.04; relative viability (HCC-15; first compound 0.03162 µM): 1.19; relative viability (HCC-15; first compound 0.1 µM): 1.03; relative viability (HCC-15; first compound 0.3162 µM): 1.1; relative viability (HCC-15; first compound 1 µM): 0.989; relative viability (ABC-1; first compound 0.01 µM): 1.22; relative viability (ABC-1; first compound 0.03162 µM): 0.951; relative viability (ABC-1; first compound 0.1 µM): 1.3; relative viability (ABC-1; first compound 0.3162 µM): 1.14; relative viability (ABC-1; first compound 1 µM): 1.16; relative viability (NCI-H1993; first compound 0.01 µM): 0.751; relative viability (NCI-H1993; first compound 0.03162 µM): 0.791; relative viability (NCI-H1993; first compound 0.1 µM): 0.934; relative viability (NCI-H1993; first compound 0.3162 µM): 0.917; relative viability (NCI-H1993; first compound 1 µM): 0.714; relative viability (COR-L23; first compound 0.01 µM): 1.11; relative viability (COR-L23; first compound 0.03162 µM): 0.981; relative viability (COR-L23; first compound 0.1 µM): 1.14; relative viability (COR-L23; first compound 0.3162 µM): 1.04; relative viability (COR-L23; first compound 1 µM): 1.05; relative viability (SW 1573; first compound 0.01 µM): 0.928; relative viability (SW 1573; first compound 0.03162 µM): 0.878; relative viability (SW 1573; first compound 0.1 µM): 0.924; relative viability (SW 1573; first compound 0.3162 µM): 0.896; relative viability (SW 1573; first compound 1 µM): 0.814; relative viability (LU99A; first compound 0.01 µM): 0.828; relative viability (LU99A; first compound 0.03162 µM): 0.888; relative viability (LU99A; first compound 0.1 µM): 0.91; relative viability (LU99A; first compound 0.3162 µM): 0.867; relative viability (LU99A; first compound 1 µM): 0.782; relative viability (HOP-62; first compound 0.01 µM): 1.15; relative viability (HOP-62; first compound 0.03162 µM): 1.13; relative viability (HOP-62; first compound 0.1 µM): 1.24; relative viability (HOP-62; first compound 0.3162 µM): 1.16; relative viability (HOP-62; first compound 1 µM): 1.12; relative viability (LC-2-ad; first compound 0.01 µM): 1.09; relative viability (LC-2-ad; first compound 0.03162 µM): 0.998; relative viability (LC-2-ad; first compound 0.1 µM): 1.11; relative viability (LC-2-ad; first compound 0.3162 µM): 0.951; relative viability (LC-2-ad; first compound 1 µM): 0.966; relative viability (NCI-H1651; first compound 0.01 µM): 0.789; relative viability (NCI-H1651; first compound 0.03162 µM): 0.949; relative viability (NCI-H1651; first compound 0.1 µM): 0.82; relative viability (NCI-H1651; first compound 0.3162 µM): 0.761; relative viability (NCI-H1651; first compound 1 µM): 0.748; relative viability (NCI-H2023; first compound 0.01 µM): 0.954; relative viability (NCI-H2023; first compound 0.03162 µM): 0.961; relative viability (NCI-H2023; first compound 0.1 µM): 0.864; relative viability (NCI-H2023; first compound 0.3162 µM): 0.853; relative viability (NCI-H2023; first compound 1 µM): 0.758; relative viability (NCI-H1915; first compound 0.01 µM): 1.15; relative viability (NCI-H1915; first compound 0.03162 µM): 1.24; relative viability (NCI-H1915; first compound 0.1 µM): 1.13; relative viability (NCI-H1915; first compound 0.3162 µM): 1.27; relative viability (NCI-H1915; first compound 1 µM): 1.15; relative viability (NCI-H838; first compound 0.01 µM): 1.01; relative viability (NCI-H838; first compound 0.03162 µM): 0.958; relative viability (NCI-H838; first compound 0.1 µM): 1.19; relative viability (NCI-H838; first compound 0.3162 µM): 0.986; relative viability (NCI-H838; first compound 1 µM): 0.789; relative viability (NCI-H2085; first compound 0.01 µM): 0.968; relative viability (NCI-H2085; first compound 0.03162 µM): 0.821; relative viability (NCI-H2085; first compound 0.1 µM): 1; relative viability (NCI-H2085; first compound 0.3162 µM): 0.897; relative viability (NCI-H2085; first compound 1 µM): 0.866; relative viability (NCI-H1355; first compound 0.01 µM): 1.01; relative viability (NCI-H1355; first compound 0.03162 µM): 0.967; relative viability (NCI-H1355; first compound 0.1 µM): 1.01; relative viability (NCI-H1355; first compound 0.3162 µM): 1.1; relative viability (NCI-H1355; first compound 1 µM): 0.991; relative viability (HARA; first compound 0.01 µM): 0.996; relative viability (HARA; first compound 0.03162 µM): 0.848; relative viability (HARA; first compound 0.1 µM): 0.998; relative viability (HARA; first compound 0.3162 µM): 0.985; relative viability (HARA; first compound 1 µM): 0.493; relative viability (PC-14; first compound 0.01 µM): 0.976; relative viability (PC-14; first compound 0.03162 µM): 0.976; relative viability (PC-14; first compound 0.1 µM): 1.08; relative viability (PC-14; first compound 0.3162 µM): 1.07; relative viability (PC-14; first compound 1 µM): 0.885
